Patent publication US7045528B2, “Benzofused heterozryl amide derivatives of thienopyridines useful as therapeutic agents, pharmaceutical compositions including the same, and methods for their use” (Agouron Pharmaceuticals, Inc., priority 2002, dated 2006)

Experiments:
PDGFRβ = biological target: T1, PDGFRβ (Homo sapiens, UniProt P09619); assay: PAE-PDGFRβ phosphorylation in PAE-PDGFRB cells assay; format: cell-based; conditions: PAE cells overexpressing human PDGFRβ, PDGF-BB stimulated; read-out: PAE PDGFR autophos IC50 (nM) AVG
T1 construct: expressed in transfected cells; host or cells: porcine aorta endothelial (PAE)-PDGFRβ cells
T1 sequence (P09619 33-1106): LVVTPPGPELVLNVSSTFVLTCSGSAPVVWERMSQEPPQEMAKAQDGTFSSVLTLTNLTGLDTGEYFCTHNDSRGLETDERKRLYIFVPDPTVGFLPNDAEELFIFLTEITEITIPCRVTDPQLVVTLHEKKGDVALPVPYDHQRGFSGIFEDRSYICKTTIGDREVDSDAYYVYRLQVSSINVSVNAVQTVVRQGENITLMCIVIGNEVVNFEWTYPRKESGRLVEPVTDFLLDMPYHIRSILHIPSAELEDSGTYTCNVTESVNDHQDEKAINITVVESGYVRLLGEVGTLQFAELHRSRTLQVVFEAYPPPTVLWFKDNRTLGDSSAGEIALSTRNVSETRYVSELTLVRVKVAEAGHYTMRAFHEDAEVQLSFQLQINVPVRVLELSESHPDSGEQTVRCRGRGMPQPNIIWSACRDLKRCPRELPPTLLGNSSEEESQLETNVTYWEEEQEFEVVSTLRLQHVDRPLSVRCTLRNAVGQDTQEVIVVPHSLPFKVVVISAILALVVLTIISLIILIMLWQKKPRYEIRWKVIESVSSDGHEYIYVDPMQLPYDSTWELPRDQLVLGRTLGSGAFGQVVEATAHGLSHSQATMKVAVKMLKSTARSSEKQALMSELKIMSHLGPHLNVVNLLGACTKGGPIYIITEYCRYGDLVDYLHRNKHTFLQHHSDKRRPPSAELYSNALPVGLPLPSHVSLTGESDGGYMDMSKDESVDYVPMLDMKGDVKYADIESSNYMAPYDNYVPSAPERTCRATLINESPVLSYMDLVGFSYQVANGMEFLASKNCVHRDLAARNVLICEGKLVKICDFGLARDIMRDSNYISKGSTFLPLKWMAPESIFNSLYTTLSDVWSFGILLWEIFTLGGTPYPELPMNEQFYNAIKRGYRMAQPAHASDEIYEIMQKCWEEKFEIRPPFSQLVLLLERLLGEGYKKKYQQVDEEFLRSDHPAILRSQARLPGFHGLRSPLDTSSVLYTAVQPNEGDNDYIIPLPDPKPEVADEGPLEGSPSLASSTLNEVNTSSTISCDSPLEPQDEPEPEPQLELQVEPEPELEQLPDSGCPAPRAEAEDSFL
Procedure, shortened: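 Inhibition of PDGF-BB-induced (1 μg/mL, 8 min, with 2 mM vanadate) PDGFRβ autophosphorylation in porcine aortic endothelial cells expressing the human receptor. Cells were starved 16 h and pretreated with compound 1 h at 37 °C. Lysates were captured with anti-PDGFRβ and probed with HRP-PY20 at 450 nm; four-parameter IC50.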

[1] = biological target: T2, unphosphorylated VEGF-R2Δ50 (FLVK) (Homo sapiens, UniProt P35968, DEL940-989/E990V); assay: VEGF-R2 coupled spectrophotometric assay, unphosphorylated VEGF-R2Δ50 (FLVK); format: biochemical; conditions: unphosphorylated VEGF-R2Δ50; for inhibition at 0.05 µM: 50 nM compound, read-out: FLVK (% inh @ 50 nM)
T2 construct: VEGF-R2Δ50 contains residues 806–939 and 990–1171; made in house; host or cells: baculovirus/insect cell system
T2 sequence (P35968 with tags, fused parts or gaps DEL940-989/E990V limits assumed): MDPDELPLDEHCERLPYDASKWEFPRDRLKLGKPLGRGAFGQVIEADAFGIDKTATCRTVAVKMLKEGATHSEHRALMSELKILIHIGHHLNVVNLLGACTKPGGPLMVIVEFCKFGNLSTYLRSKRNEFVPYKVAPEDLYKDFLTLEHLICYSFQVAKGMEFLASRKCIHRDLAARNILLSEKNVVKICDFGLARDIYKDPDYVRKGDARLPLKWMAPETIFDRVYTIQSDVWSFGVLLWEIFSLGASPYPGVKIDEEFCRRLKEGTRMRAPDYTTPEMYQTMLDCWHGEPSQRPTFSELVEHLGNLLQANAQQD
Procedure, shortened: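 Ki obtained by Morrison-equation fitting of activity at varied compound levels; reaction started with 5–40 nM enzyme. Non-autophosphorylated kinase construct (insect cell-expressed) with 3 mM ATP, 20 mM poly(E4Y1), 60 mM MgCl2 plus 2 mM MnCl2, pH 7.5 HEPES; NADH loss at 340 nm via PK/LDH coupling.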

[2] = test system: human umbilical vein endothelial cells (HUVEC); assay: HUVEC+VEGF proliferation assay; format: cell-based; conditions: Homo sapiens, HUVEC; VEGF 6 ng/mL, 72 h, MTT
Procedure, shortened: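 Exponentially growing passage 3–4 HUVEC were starved 24 h in F12K + 1% FBS, given compound (0.1% final DMSO) 1 h before 6 ng/mL final VEGF, then cultured 72 h. Proliferation was read as MTT dye reduction (4 h exposure), absorbance at 595 nm.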

Huvec = assay: bFGF Huvec proliferation; format: cell-based, human; conditions: Homo sapiens, HUVEC

`CO[C@@H]1CCN(C(=O)c2cc3nccc(Oc4ccc5c(C(=O)NCC(C)C)c(C)oc5c4)c3s2)C1` [Example 87, 6-[2-(3-Methoxy-pyrrolidine-1-carbonyl)-thieno[3,2-b]pyridin-7-yloxy]-2-methyl-benzofuran-3-carboxylic acid isobutyl amide] was tested, and the IC50 (PDGFRβ) was 17.8 nM, the inhibition at 0.05 µM [1] was 96% and the Ki [1] was 0.615 nM. For the same compound, the IC50 [2] was 1.25 nM and the IC50 (Huvec) was 6040 nM.

`Cc1oc2cc(Oc3ccnc4ccsc34)ccc2c1C(=O)Nc1ccc(N2CCOCC2)nc1` [Example 102, 2-Methyl-6-(thieno[3,2-b]pyridin-7-yloxy)benzofuran-3-carboxylic acid (6-morpholin-4-yl-pyridin-3-yl)amide] was tested, and the IC50 (PDGFRβ) was 49 nM, the inhibition at 0.05 µM [1] was 96% and the Ki [1] was 0.91 nM. It also gave an IC50 [2] of 0.186 nM and an IC50 (Huvec) of 1720 nM.

For `CNC(=O)c1c(C)n(C)c2cc(Oc3ccnc4cc(-c5ccc(OC)cn5)sc34)ccc12` [Example 48, 6-[2-(5-Methoxy-pyridin-2-yl)-thieno[3,2-b]pyridin-7-yloxy]-1,2-dimethyl-1H-indole-3-carboxylic acid methylamide], the IC50 (PDGFRβ) was 21 nM, the inhibition at 0.05 µM [1] was 91% and the IC50 [2] was 0.94 nM. The IC50 (Huvec) was 239 nM.

`Cc1c(C(=O)NC2CC2)c2ccc(Oc3ccnc4cc(C(=O)N5CCC[C@H]5CO)sc34)cc2n1C` [Example 54, N-Cyclopropyl-6-[(2-{[(2S)-2-(hydroxymethyl)pyrrolidin-1-yl]carbonyl}thieno[3,2-b]pyridin-7-yl)oxy]-1,2-dimethyl-1H-indole-3-carboxamide] showed an IC50 (PDGFRβ) of 133 nM, an inhibition at 0.05 µM [1] of 89% and a Ki [1] of 1.71 nM. The IC50 [2] was 1.8 nM and the IC50 (Huvec) was 10000 nM.

In the case of `CNC(=O)c1c(C)n(C)c2cc(Oc3ccnc4cc(-c5nc(C(C)(C)O)cs5)sc34)ccc12` [Example 40, 6-{2-[4(1-Hydroxy-1-methyl-ethyl)-thiazol-2-yl]-thieno[3,2-b]pyridin-7-yloxy}-1,2-dimethyl-1H-indole-3-carboxylic acid methylamide], the IC50 (PDGFRβ) is reported as 24.2 nM, the inhibition at 0.05 µM [1] is reported as 77% and the Ki [1] is reported as 2.95 nM. It also gave an IC50 [2] of 1.12 nM and an IC50 (Huvec) of 7800 nM.

`Cc1sc2cc(Oc3ccnc4cc(-c5nccn5C)sc34)ccc2c1C(=O)NC1CC1` [Example 117, 2-Methyl-6-{[2-(1-methyl-1H-imidazol-2-yl)thieno[3,2-b]pyridin-7-yl]oxy}benzo[b]thiophene-3-carboxylic acid cyclopropylamide] gave an IC50 (PDGFRβ) of 189 nM, an inhibition at 0.05 µM [1] of 87% and a Ki [1] of 0.2 nM. The IC50 [2] was 0.07 nM and the IC50 (Huvec) was 86 nM.

`CNC(=O)c1c(C)oc2cc(Oc3ccnc4cc(C(=O)N5CCC[C@H]5CO)sc34)ccc12` [Example 80, 6-(2-[(S)-2-(hydroxymethyl)pyrrolidine-1-carbonyl]thieno[3,2-b]pyridin-7-yloxy)-2-methyl-benzofuran-3-carboxylic acid methylamide] was tested, and the IC50 (PDGFRβ) was 31 nM, the inhibition at 0.05 µM [1] was 95% and the Ki [1] was 0.438 nM. For the same compound, the IC50 [2] was 0.239 nM and the IC50 (Huvec) was 60 nM.

`Cc1oc2cc(Oc3ccnc4cc(-c5nccn5C)sc34)ccc2c1C(=O)NC(C)C` [Example 83, 2-Methyl-6-[2-(1-methyl-1H-imidazol-2-yl)-thieno[3,2-b]pyridin-7-yloxy]-benzofuran-3-carboxylic acid isopropyl amide] gave an IC50 (PDGFRβ) of 28.8 nM, an inhibition at 0.05 µM [1] of 98% and a Ki [1] of 0.2 nM. It also gave an IC50 [2] of 0.77 nM and an IC50 (Huvec) of 142 nM.

With `COC[C@@H]1CCCN1C(=O)c1cc2nccc(Oc3ccc4c(C(=O)NC(C)C)c(C)oc4c3)c2s1` [Example 82, 6-(2-[(S)-2-(methoxymethyl)pyrrolidine-1-carbonyl]thieno[3,2-b]pyridin-7-yloxy)-2-methyl-benzofuran-3-carboxylic acid isopropylamide] the IC50 (PDGFRβ) was 53.1 nM, the inhibition at 0.05 µM [1] was 89% and the Ki [1] was 0.884 nM. It also gave an IC50 [2] of 2.28 nM and an IC50 (Huvec) of 2060 nM.

`Cc1oc2cc(Oc3ccnc4ccsc34)ccc2c1C(=O)NCCc1c[nH]c2cc(F)ccc12` [Example 104, 2-Methyl-6-(thieno[3,2-b]pyridin-7-yloxy)-benzofuran-3-carboxylic acid [2-(6-fluoro-1H-indol-3-yl)ethyl]-amide] showed an IC50 (PDGFRβ) of 164 nM, an inhibition at 0.05 µM [1] of 100% and an IC50 [2] of 8.4 nM. It also gave an IC50 (Huvec) of 227 nM.

For `CNC(=O)c1c(C)oc2cc(Oc3ccnc4cc(-c5nc(CO)cs5)sc34)ccc12` [Example 81, 6-[2-(4-Hydroxymethyl-thiazol-2-yl)-thieno[3,2-b]pyridin-7-yloxy]-2-methyl-benzofuran-3-carboxylic acid methylamide], the IC50 (PDGFRβ) was 7 nM, the inhibition at 0.05 µM [1] was 100% and the Ki [1] was 0.2 nM. It also gave an IC50 [2] of 0.09 nM and an IC50 (Huvec) of 26 nM.

`Cc1c(C(=O)Nc2ccccn2)c2ccc(Oc3ccnc4cc(-c5nccn5C)sc34)cc2n1C` [Example 69, 1,2-Dimethyl-6-[2-(1-methyl-1H-imidazol-2-yl)-thieno[3,2-b]pyridin-7-yloxy]-1H-indole-3-carboxylic acid pyridin-2-ylamide] showed an IC50 (PDGFRβ) of 6.52 nM, an inhibition at 0.05 µM [1] of 95% and a Ki [1] of 0.3 nM. It also gave an IC50 [2] of 0.57 nM and an IC50 (Huvec) of 4310 nM.

`Cc1sc2cc(Oc3ccnc4cc(-c5nc(CO)cs5)sc34)ccc2c1C(=O)NC1CC1` [Example 129] gave an IC50 (PDGFRβ) of 168 nM, an inhibition at 0.05 µM [1] of 88% and a Ki [1] of 0.2 nM. The IC50 [2] was 0.219 nM and the IC50 (Huvec) was 100 nM.

For `CO[C@@H]1CCN(C(=O)c2cc3nccc(Oc4ccc5c(C(=O)NC6CC6)c(C)sc5c4)c3s2)C1` [Example 11, 6-[(2-{[(3R)-3-methoxypyrrolidin-1-yl]carbonyl}thieno[3,2-b]pyridin-7-yl)oxy]-2-methylbenzo[b]thiophene-3-carboxylic acid cyclopropylamide], the IC50 (PDGFRβ) was 104 nM, the inhibition at 0.05 µM [1] was 93% and the Ki [1] was 0.492 nM. It also gave an IC50 [2] of 0.56 nM and an IC50 (Huvec) of 40 nM.

In the case of `Cc1c(C(=O)NC2CC2)c2ccc(Oc3ccnc4cc(C(=O)N5CC[C@@H](O)C5)sc34)cc2n1C` [Example 53, 6-[2-((R)-3-Hydroxy-pyrrolidine-1-carbonyl)-thieno[3,2-b]pyridin-7-yloxy]-1,2-dimethyl-1H-indole-3-carboxylic acid cyclopropylamide], the IC50 (PDGFRβ) is reported as 229 nM, the inhibition at 0.05 µM [1] is reported as 93% and the Ki [1] is reported as 1.07 nM. The IC50 [2] was 1.8 nM and the IC50 (Huvec) was 7230 nM.

`CNC(=O)c1c(Cl)n(C)c2cc(Oc3ccnc4cc(-c5nc(C(C)(C)O)cs5)sc34)ccc12` [Example 75, 2-Chloro-6-{2-[4-(1-hydroxy-1-methyl-ethyl)thiazol-2-yl]-thieno[3,2-b]pyridin-7-yloxy}-1-methyl-1H-indole-3-carboxyllc acid methylamide] gave an IC50 (PDGFRβ) of 16.6 nM, an inhibition at 0.05 µM [1] of 84% and a Ki [1] of 2.62 nM. The IC50 [2] was 1.4 nM and the IC50 (Huvec) was 10000 nM.

Work on `CNC(=O)c1c(C)n(C)c2cc(Oc3ccnc4cc(C(=O)N5CCCC5)sc34)ccc12` [Example 28, 1,2-Dimethyl-6-[2-(pyrrolidine-1-carbonyl)-thieno[3,2-b]pyridin-7-yloxy]-1H-indole-3-carboxylic acid methylamide] yielded an IC50 (PDGFRβ) of 15 nM, an inhibition at 0.05 µM [1] of 78% and a Ki [1] of 2.8 nM. The IC50 [2] was 0.272 nM and the IC50 (Huvec) was 462 nM.

With `CNC(=O)c1c(C)n(C)c2cc(Oc3ccnc4cc(-c5nccs5)sc34)ccc12` [Example 41, 1,2-Dimethyl-6-(2-thiazol-2-yl-thieno[3,2-b]pyridin-7-yloxy)-1H-indole-3-carboxylic acid methylamide] the IC50 (PDGFRβ) was 22.1 nM, the inhibition at 0.05 µM [1] was 71% and the Ki [1] was 3.3 nM. For the same compound, the IC50 [2] was 3.7 nM and the IC50 (Huvec) was 1220 nM.
